Key:
Assay type in all cases: in vivo
[1] = test system: ducksalad (Heteranthera limosa); assay: Test B flooded paddy test; settings: for Plant response rating, Flood, Ducksalad: 250 g ai/ha, flooded paddy test, visual rating on 0 to 100 scale (0 no effect, 100 complete control) after 13 to 15 days; for Plant response rating, Ducksalad: Flood (flooded paddy test), 13 to 15 days
Summary of the method: (§1)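 Greenhouse-held for 13 to 15 days, treated pots were compared visually with controls and scored 0–100 (0, no effect). Treatment had been made into paddy water kept at 3 cm above the soil, with plants at the 2-leaf stage.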

rice (Oryza sativa) = assay: Test B flooded paddy test; settings: for Plant response rating, Flood, Rice: 250 g ai/ha, flooded paddy test, visual rating on 0 to 100 scale (0 no effect, 100 complete control) after 13 to 15 days; for Plant response rating, Rice: Flood (flooded paddy test), 13 to 15 days
Summary of the method: as §1

[2] = test system: barnyardgrass (Echinochloa crus-galli); assay: Test B flooded paddy test; settings: for Plant response rating, Flood, Barnyardgrass: 250 g ai/ha, flooded paddy test, visual rating on 0 to 100 scale (0 no effect, 100 complete control) after 13 to 15 days; for Plant response rating, Barnyardgrass: Flood (flooded paddy test), 13 to 15 days
Summary of the method: as §1

[3] = test system: umbrella sedge (Cyperus difformis); assay: Test B flooded paddy test; settings: for Plant response rating, Flood, Sedge, Umbrella: 250 g ai/ha, flooded paddy test, visual rating on 0 to 100 scale (0 no effect, 100 complete control) after 13 to 15 days; for Plant response rating, Sedge, Umbrella: Flood (flooded paddy test), 13 to 15 days
Summary of the method: as §1

[4] = test system: windgrass (Apera spica-venti); assay: Test B postemergence plant response
Summary of the method: (§2)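 Plants grown in peat/vermiculite medium were sprayed postemergence at 2–18 cm height (1- to 4-leaf stage). After 13–15 days in the greenhouse, response was rated visually against untreated controls on a 0–100 scale (0 no effect, 100 complete control).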

[5] = test system: canarygrass (Phalaris minor); assay: Test B postemergence plant response
Summary of the method: as §2

[6] = test system: chickweed (Stellaria media); assay: Test B postemergence plant response
Summary of the method: as §2

[7] = test system: winter barley (Hordeum vulgare); assay: Test B postemergence plant response
Summary of the method: as §2

[8] = test system: morningglory (Ipomoea coccinea); assay: Test B pre-/postemergence plant response
Summary of the method: (§3)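 Visually scored on a 0 to 100 scale after 13 to 15 days in greenhouse versus controls. Treatments were preemergence on seeded loam/sand soil and postemergence on 1- to 4-leaf plants.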

[9] = test system: sunflower (common oilseed sunflower, Helianthus annuus); assay: Test B pre-/postemergence plant response; settings: Preemergence
Summary of the method: as §3

[10] = test system: galium (catchweed bedstraw, Galium aparine); assay: Test B pre-/postemergence plant response; settings: Preemergence
Summary of the method: as §3

[11] = test system: bermudagrass (Cynodon dactylon); assay: Test B pre-/postemergence plant response
Summary of the method: as §3

[12] = test system: nightshade (eastern black nightshade, Solanum ptycanthum); assay: Test B pre-/postemergence plant response; settings: Preemergence
Summary of the method: as §3

[13] = 62 g ai/ha, scale of 0 to 100 where 0 is no effect and 100 is complete control
[14] = Postemergence, 31 g ai/ha, 0 to 100 scale (0 no effect, 100 complete control)
[15] = Postemergence, 250 g ai/ha, scale 0 to 100 (0 no effect, 100 complete control), 13 to 15 days
[16] = Postemergence, 62 g ai/ha, scale 0 to 100 (0 no effect, 100 complete control)
[17] = Postemergence, 125 g ai/ha, scale 0 to 100 (0 no effect, 100 complete control)
[18] = Preemergence, 31 g ai/ha, scale 0 to 100 (0 no effect, 100 complete control)
[19] = Preemergence, 62 g ai/ha, scale 0 to 100, 0 no effect, 100 complete control
[20] = Preemergence, 125 g ai/ha, scale 0 to 100, 0 no effect, 100 complete control
[21] = 31 g ai/ha, scale 0 to 100 (0 no effect, 100 complete control)
[22] = 62 g ai/ha, scale 0 to 100, 0 no effect, 100 complete control
[23] = 125 g ai/ha, scale 0 to 100, 0 no effect, 100 complete control
[24] = 31 g ai/ha, scale of 0 to 100 where 0 is no effect and 100 is complete control
[25] = 125 g ai/ha, scale 0 to 100, 0 is no effect, 100 is complete control
[26] = 31 g ai/ha, postemergence, scale 0 to 100, 0 is no effect, 100 is complete control
[27] = Postemergence, 62 g ai/ha, scale 0 (no effect) to 100 (complete control), 13 to 15 days
[28] = Postemergence, 125 g ai/ha, visual rating after 13 to 15 days, scale 0 (no effect) to 100 (complete control)
[29] = Postemergence, 250 g ai/ha, scale 0 to 100 (0 no effect, 100 complete control)

CCCc1ncc(C(=O)C2=C(O)CCCC2=O)c(=O)n1-c1ccccc1 [Compound 217]
Plant response rating, Flood, Ducksalad [1]: 40 | Plant response rating, Ducksalad [1, 13]: 0 | Plant response rating, Flood, Rice (rice (Oryza sativa)): 20 | Plant response rating, Rice (rice (Oryza sativa); [13]): 0 | Plant response rating, Flood, Barnyardgrass [2]: 0 | Plant response rating, Barnyardgrass [2, 13]: 0 | Plant response rating, Flood, Sedge, Umbrella [3]: 40 | Plant response rating, Sedge, Umbrella [3, 13]: 40 | Plant response rating, Windgrass [4, 14]: 50 | Plant response rating, Windgrass [4, 15]: 85 | Plant response rating, Windgrass [4, 16]: 50 | Plant response rating, Canarygrass [5, 14]: 0 | Plant response rating, Canarygrass [5, 17]: 20 | Plant response rating, Canarygrass [5, 15]: 20 | Plant response rating, Canarygrass [5, 16]: 20 | Plant response rating, Chickweed [6, 14]: 75 | Plant response rating, Chickweed [6, 17]: 100 | Plant response rating, Chickweed [6, 15]: 100 | Plant response rating, Chickweed [6, 16]: 95 | Plant response rating, Barley [7, 14]: 0 | Plant response rating, Barley [7, 17]: 10 | Plant response rating, Barley [7, 15]: 10 | Plant response rating, Barley [7, 16]: 5 | Plant response rating, Morningglory [8, 14]: 70 | Plant response rating, Morningglory [8, 17]: 80 | Plant response rating, Morningglory [8, 15]: 80 | Plant response rating, Morningglory [8, 16]: 75 | Plant response rating, Morningglory [8, 18]: 0 | Plant response rating, Morningglory [8, 19]: 0 | Plant response rating, Morningglory [8, 20]: 0 | Morningglory plant response rating ([8]; Preemergence, 250 g ai/ha, 0 to 100 scale): 0 | Plant response rating, Sunflower [9, 21]: 70 | Plant response rating, Sunflower [9, 22]: 75 | Plant response rating, Sunflower [9, 23]: 85 | Sunflower plant response rating ([9]; 250 g ai/ha, 0 to 100 scale): 85 | Plant response rating, Galium [10, 21]: 0 | Plant response rating, Galium [10, 22]: 10 | Plant response rating, Galium [10, 23]: 70 | Galium plant response rating ([10]; 250 g ai/ha, 0 to 100 scale): 90 | Plant response rating, Bermudagrass [11, 14]: 70 | Plant response rating, Bermudagrass [11, 17]: 98 | Plant response rating, Bermudagrass [11, 15]: 100 | Plant response rating, Bermudagrass [11, 16]: 85 | Plant response rating, Bermudagrass [11, 18]: 98 | Plant response rating, Bermudagrass [11, 19]: 100 | Plant response rating, Bermudagrass [11, 20]: 100 | Bermudagrass plant response rating ([11]; Preemergence, 250 g ai/ha, 0 to 100 scale, 0 no effect, 100 complete control): 100 | Plant response rating, Nightshade [12, 21]: 95 | Plant response rating, Nightshade [12, 22]: 100 | Plant response rating, Nightshade [12, 23]: 100 | Nightshade plant response rating ([12]; 250 g ai/ha, 0 to 100 scale): 100

CCCCc1ncc(C(=O)C2=C(O)CCCC2=O)c(=O)n1-c1ccccc1C [Compound 62]
Plant response rating, Flood, Ducksalad [1]: 30 | Plant response rating, Ducksalad [1, 24]: 0 | Plant response rating, Ducksalad [1, 13]: 0 | Plant response rating, Ducksalad [1, 25]: 0 | Plant response rating, Flood, Rice (rice (Oryza sativa)): 0 | Plant response rating, Rice (rice (Oryza sativa); [24]): 0 | Plant response rating, Rice (rice (Oryza sativa); [13]): 0 | Plant response rating, Rice (rice (Oryza sativa); [25]): 0 | Plant response rating, Flood, Barnyardgrass [2]: 0 | Plant response rating, Barnyardgrass [2, 24]: 0 | Plant response rating, Barnyardgrass [2, 13]: 0 | Plant response rating, Barnyardgrass [2, 25]: 0 | Plant response rating, Flood, Sedge, Umbrella [3]: 0 | Plant response rating, Sedge, Umbrella [3, 24]: 0 | Plant response rating, Sedge, Umbrella [3, 13]: 0 | Plant response rating, Sedge, Umbrella [3, 25]: 0 | Plant response rating, Windgrass [4, 26]: 30 | Plant response rating, Windgrass [4, 27]: 35 | Plant response rating, Windgrass [4, 28]: 35 | Plant response rating, Windgrass [4, 29]: 50 | Plant response rating, Canarygrass [5, 26]: 0 | Plant response rating, Canarygrass [5, 27]: 0 | Plant response rating, Canarygrass [5, 28]: 0 | Plant response rating, Canarygrass [5, 29]: 5 | Plant response rating, Chickweed [6, 26]: 70 | Plant response rating, Chickweed [6, 27]: 70 | Plant response rating, Chickweed [6, 28]: 75 | Plant response rating, Chickweed [6, 29]: 80 | Plant response rating, Barley [7, 26]: 0 | Plant response rating, Barley [7, 27]: 5 | Plant response rating, Barley [7, 28]: 5 | Plant response rating, Barley [7, 29]: 30 | Plant response rating, Morningglory [8, 27]: 15 | Plant response rating, Morningglory [8, 28]: 75 | Plant response rating, Morningglory [8, 29]: 75 | Plant response rating, Morningglory [8, 18]: 0 | Plant response rating, Morningglory [8, 19]: 0 | Plant response rating, Morningglory [8, 20]: 0 | Plant response rating, Sunflower [9, 21]: 0 | Plant response rating, Sunflower [9, 22]: 10 | Plant response rating, Sunflower [9, 23]: 10 | Plant response rating, Galium ([10]; 250 g ai/ha, 0 to 100 scale): 0 | Plant response rating, Galium [10, 21]: 0 | Plant response rating, Galium [10, 22]: 0 | Plant response rating, Galium [10, 23]: 0 | Plant response rating, Bermudagrass ([11]; 250 g ai/ha, Preemergence, 0 to 100 scale): 100 | Plant response rating, Bermudagrass [11, 27]: 80 | Plant response rating, Bermudagrass [11, 28]: 85 | Plant response rating, Bermudagrass [11, 29]: 90 | Plant response rating, Bermudagrass [11, 18]: 20 | Plant response rating, Bermudagrass [11, 19]: 75 | Plant response rating, Bermudagrass [11, 20]: 95 | Plant response rating, Nightshade [12, 21]: 10 | Plant response rating, Nightshade [12, 22]: 95 | Plant response rating, Nightshade [12, 23]: 98

From US8952024B2, “Herbicidal pyrimidone derivatives” (E I du Pont de Nemours and Company, priority 2009, dated 2015)
